Data published in patent US11713309B2, “Solid forms of Cerdulatinib” (Alexion Pharmaceuticals, Inc., priority 2018, dated 2023).
Converted amounts (≈) assume the structure as drawn.

How the values were obtained:
Type in all cases: physicochemical
[1] = Kinetic solubility in FaSSIF; conditions: for Solubility (mg/mL) 1 h / Solubility (mg/mL) 2 h / Solubility (mg/mL) 4 h / Solubility (mg/mL) 24 h / Final Form: FaSSIF; for Solubility (mg/mL) 1 h / Solubility (mg/mL) 2 h / Solubility (mg/mL) 4 h / Solubility (mg/mL) 24 h: 37° C.; for Solubility (mg/mL) 1 h: drug loading ~10 mg/mL as freebase; for Final Form: XRPD of residual solids; for Solubility (mg/mL) 1 h / Final Form / pH 1 h: 1 h; for Solubility (mg/mL) 2 h / Final Form / pH 2 h: 2 h; for Solubility (mg/mL) 4 h / Final Form / pH 4 h: 4 h; for Solubility (mg/mL) 24 h / Final Form / pH 24 h: 24 h; for pH 1 h / pH 2 h / pH 4 h / pH 24 h: supernatant, FaSSIF (native pH 6.5)
Procedure: (§1) Kinetic solubility testing was conducted as follows: About 40-55 mg material was weighed into a 5-mL EP pipe. 4 mL of water/bio-relevant media (SGF, FaSSIF, or FeSSIF) was added into the corresponding sample pipe (drug loading: ˜10 mg/mL calculated as freebase). The pipes were capped tightly and the material was verified to be in contact with the media. The sample vials were placed on a roller and start rolling at 37° C. (rate: 25 r/min). Samples were taken at 1, 2, 4, 24 h. For each time point, 1.0 mL of suspension was transferred into a 2-mL centrifuge tube and the samples were centrifuged. The supernatant was filtered via 0.45 μm PTFE membrane and solubility and pH were measured. An XRPD test on residual solids was conducted.

[2] = Kinetic solubility in water; conditions: 37° C.; for pH of supernatant: water (native pH 7.6)
Procedure: as §1

[3] = Kinetic solubility in SGF; conditions: for Solubility (mg/mL) 1 h / Solubility (mg/mL) 2 h / Solubility (mg/mL) 4 h / Solubility (mg/mL) 24 h: 37° C.; for Solubility (mg/mL) 1 h: drug loading ~10 mg/mL as freebase; for pH 1 h / pH 2 h / pH 4 h / pH 24 h: supernatant, SGF (native pH 1.8)
Procedure: as §1

[4] = Kinetic solubility in FeSSIF; conditions: for Solubility (mg/mL) 1 h / Solubility (mg/mL) 2 h / Solubility (mg/mL) 4 h / Solubility (mg/mL) 24 h: 37° C.; for Solubility (mg/mL) 1 h: drug loading ~10 mg/mL as freebase; for pH 1 h / pH 2 h / pH 4 h / pH 24 h: supernatant
Procedure: as §1

[5] = listed as Naphthalene disulfonate Type A
[6] = 1 h, listed as Naphthalene disulfonate Type A
[7] = 2 h, listed as Naphthalene disulfonate Type A
[8] = 4 h, listed as Naphthalene disulfonate Type A
[9] = 24 h, listed as Naphthalene disulfonate Type A

CCS(=O)(=O)N1CCN(c2ccc(Nc3ncc(C(N)=O)c(NC4CC4)n3)cc2)CC1 [4-(cyclopropylamino)-2-(4-(4-(ethylsulfonyl)piperazin-1-yl)phenylamino)pyrimidine-5-carboxamide]
Solubility (mg/mL) 1 h [1, 5]: 0.0035 mg/mL (≈ 7.86 µM) | Solubility (mg/mL) 2 h [1, 5]: 0.0037 mg/mL (≈ 8.3 µM) | Solubility (mg/mL) 4 h [1, 5]: 0.0030 mg/mL (≈ 6.73 µM) | Solubility (mg/mL) 24 h [1, 5]: 0.0027 mg/mL (≈ 6.06 µM) | Final Form [1, 5]: New form X | pH 1 h [1, 5]: 2.8 | pH 2 h [1, 5]: 2.7 | pH 4 h [1, 5]: 2.6 | pH 24 h [1, 5]: 2.5 | pH of supernatant [2, 6]: 2.8 | pH of supernatant [2, 7]: 2.6 | pH of supernatant [2, 8]: 2.5 | pH of supernatant [2, 9]: 2.4 | Kinetic solubility ([2]; water, 1 h, listed as Naphthalene disulfonate Type A): 0.0014 mg/mL | Kinetic solubility ([2]; water, 2 h, listed as Naphthalene disulfonate Type A): 0.0025 mg/mL | Kinetic solubility ([2]; water, 4 h, listed as Naphthalene disulfonate Type A): 0.0015 mg/mL | Kinetic solubility ([2]; water, 24 h, listed as Naphthalene disulfonate Type A): 0.0016 mg/mL | Solubility (mg/mL) 1 h ([3]; SGF, 1 h, listed as Naphthalene disulfonate Type A): 0.019 mg/mL (≈ 42.6 µM) | Solubility (mg/mL) 2 h ([3]; SGF, 2 h, listed as Naphthalene disulfonate Type A): 0.016 mg/mL (≈ 35.9 µM) | Solubility (mg/mL) 4 h ([3]; SGF, 4 h, listed as Naphthalene disulfonate Type A): 0.018 mg/mL (≈ 40.4 µM) | Solubility (mg/mL) 24 h ([3]; SGF, 24 h, listed as Naphthalene disulfonate Type A): 0.016 mg/mL (≈ 35.9 µM) | pH 1 h [3, 6]: 2.0 | pH 2 h [3, 7]: 1.9 | pH 4 h [3, 8]: 2.0 | pH 24 h [3, 9]: 1.8 | Solubility (mg/mL) 1 h [4, 6]: 0.0088 mg/mL (≈ 19.8 µM) | Solubility (mg/mL) 2 h [4, 7]: 0.0079 mg/mL (≈ 17.7 µM) | Solubility (mg/mL) 4 h [4, 8]: 0.0069 mg/mL (≈ 15.5 µM) | Solubility (mg/mL) 24 h [4, 9]: 0.0059 mg/mL (≈ 13.2 µM) | Final Form ([4]; XRPD of residual solids, 1 h, 2 h, 4 h, 24 h, listed as Naphthalene disulfonate Type A): New form X | pH 1 h [4, 6]: 4.6 | pH 2 h [4, 7]: 4.6 | pH 4 h [4, 8]: 4.6 | pH 24 h [4, 9]: 4.6

CCS(=O)(=O)N1CCN(c2ccc(Nc3ncc(C(N)=O)c(NC4CC4)n3)cc2)CC1 [Compound I esylate Type A, 4-(cyclopropylamino)-2-(4-(4-(ethylsulfonyl)piperazin-1-yl)phenylamino)pyrimidine-5-carboxamide]
Solubility (mg/mL) 1 h ([1]; listed as Esylate Type A): 0.015 mg/mL (≈ 33.7 µM) | Solubility (mg/mL) 2 h ([1]; listed as Esylate Type A): 0.012 mg/mL (≈ 26.9 µM) | Solubility (mg/mL) 4 h ([1]; listed as Esylate Type A): 0.024 mg/mL (≈ 53.9 µM) | Solubility (mg/mL) 24 h ([1]; listed as Esylate Type A): 0.0040 mg/mL (≈ 8.98 µM) | Final Form [1]: Freebase Form II | pH 1 h ([1]; listed as Esylate Type A): 5.2 | pH 2 h ([1]; listed as Esylate Type A): 5.0 | pH 4 h ([1]; listed as Esylate Type A): 4.3 | pH 24 h ([1]; listed as Esylate Type A): 3.8 | pH of supernatant ([2]; 1 h, listed as Esylate Type A): 2.3 | pH of supernatant ([2]; 2 h, listed as Esylate Type A): 2.0 | pH of supernatant ([2]; 4 h, listed as Esylate Type A): 2.2 | pH of supernatant ([2]; 24 h, listed as Esylate Type A): 2.1 | Final Form of residual solids (XRPD) ([2]; water, 1 h, 2 h, 4 h, 24 h, listed as Esylate Type A): Freebase Form II | Kinetic solubility ([2]; water, 1 h, listed as Esylate Type A): 1.7 mg/mL | Kinetic solubility ([2]; water, 2 h, listed as Esylate Type A): 1.5 mg/mL | Kinetic solubility ([2]; water, 4 h, listed as Esylate Type A): 1.4 mg/mL | Kinetic solubility ([2]; water, 24 h, listed as Esylate Type A): 1.3 mg/mL | Solubility (mg/mL) 1 h ([3]; SGF, 1 h, listed as Esylate Type A): 0.092 mg/mL (≈ 206 µM) | Solubility (mg/mL) 2 h ([3]; SGF, 2 h, listed as Esylate Type A): 0.10 mg/mL (≈ 224 µM) | Solubility (mg/mL) 4 h ([3]; SGF, 4 h, listed as Esylate Type A): 0.087 mg/mL (≈ 195 µM) | Solubility (mg/mL) 24 h ([3]; SGF, 24 h, listed as Esylate Type A): 0.083 mg/mL (≈ 186 µM) | Final Form ([3]; XRPD of residual solids, SGF, 1 h, 2 h, 4 h, 24 h): HC1 salt Form I | pH 1 h ([3]; 1 h, listed as Esylate Type A): 2.1 | pH 2 h ([3]; 2 h, listed as Esylate Type A): 1.9 | pH 4 h ([3]; 4 h, listed as Esylate Type A): 2.1 | pH 24 h ([3]; 24 h, listed as Esylate Type A): 1.9 | Solubility (mg/mL) 1 h ([4]; 1 h, listed as Esylate Type A): 0.060 mg/mL (≈ 135 µM) | Solubility (mg/mL) 2 h ([4]; 2 h, listed as Esylate Type A): 0.027 mg/mL (≈ 60.6 µM) | Solubility (mg/mL) 4 h ([4]; 4 h, listed as Esylate Type A): 0.014 mg/mL (≈ 31.4 µM) | Solubility (mg/mL) 24 h ([4]; 24 h, listed as Esylate Type A): 0.011 mg/mL (≈ 24.7 µM) | Final Form 2 h, 4 h, 24 h ([4]; XRPD of residual solids, 2 h, 4 h, 24 h): Freebase Form II | pH 1 h ([4]; 1 h, listed as Esylate Type A): 4.8 | pH 2 h ([4]; 2 h, listed as Esylate Type A): 4.7 | pH 4 h ([4]; 4 h, listed as Esylate Type A): 4.7 | pH 24 h ([4]; 24 h, listed as Esylate Type A): 4.4
